Results reported in article PMC12839014, “Machine Learning-Based Virtual Screening for the Identification of Novel CDK-9 Inhibitors” (Biomolecules, 2025).
Read-outs that look alike come from different tables or passages of the source.

Assays:
HeLa cells = experiment: Cell viability assay (SRB), HeLa; assay type: cell-based; details: 72 h; for cell viability (antiproliferative effect): single agent, SRB
Method: (§1) HeLa, MCF-7, and MDA-MB-231 cells were seeded in triplicate into 96-well plates at densities of 1500, 3500, and 3000 cells per well, respectively, and allowed to adhere for 24 h. After 72 h of incubation, cells were fixed with 10% (v/v) trichloroacetic acid (TCA) and subsequently stained with 0.4% (w/v) sulforhodamine B (SRB) dissolved in 1% (v/v) acetic acid. Cell viability was quantified and expressed as a percentage relative to untreated control cells, which were normalized to 100%. Data represent the mean ± standard deviation (SD) from three independent experiments (n = 3). Statistical significance was determined using one-way ANOVA or Student’s t-test, followed by appropriate multiple-comparison post hoc tests to evaluate differences between experimental groups.

MCF-7 cells = experiment: Cell viability assay (SRB), MCF-7; assay type: cell-based; details: 72 h; for cell viability (antiproliferative effect): MCF-7, single agent, SRB
Method: as §1

MDA-MB-231 cells = experiment: Cell viability assay (SRB), MDA-MB-231; assay type: cell-based; details: 72 h; for cell viability (antiproliferative effect): MDA-MB-231, single agent, SRB
Method: as §1

CDK9/cyclin T1 = biological target: T1, CDK9/cyclin T1 (Homo sapiens, UniProt P50750); experiment: ADAPTA kinase assay (TR-FRET), CDK9 inhibition; assay type: biochemical; details: for IC50: CDK9 inhibitory activity
T1 construct: purchased Thermo Fisher Scientific, Madison, WI, USA
T1 sequence (P50750 whole entry): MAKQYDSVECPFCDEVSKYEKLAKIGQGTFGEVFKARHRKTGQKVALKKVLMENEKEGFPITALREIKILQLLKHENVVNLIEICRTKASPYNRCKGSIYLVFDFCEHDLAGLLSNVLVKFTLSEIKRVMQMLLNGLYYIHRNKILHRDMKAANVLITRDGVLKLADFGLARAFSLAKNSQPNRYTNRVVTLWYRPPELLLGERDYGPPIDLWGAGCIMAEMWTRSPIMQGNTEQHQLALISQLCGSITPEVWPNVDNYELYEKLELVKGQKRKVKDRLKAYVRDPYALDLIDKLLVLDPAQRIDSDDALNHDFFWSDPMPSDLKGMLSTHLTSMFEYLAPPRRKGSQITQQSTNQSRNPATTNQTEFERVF
T1 sequence (O60563 whole entry partner): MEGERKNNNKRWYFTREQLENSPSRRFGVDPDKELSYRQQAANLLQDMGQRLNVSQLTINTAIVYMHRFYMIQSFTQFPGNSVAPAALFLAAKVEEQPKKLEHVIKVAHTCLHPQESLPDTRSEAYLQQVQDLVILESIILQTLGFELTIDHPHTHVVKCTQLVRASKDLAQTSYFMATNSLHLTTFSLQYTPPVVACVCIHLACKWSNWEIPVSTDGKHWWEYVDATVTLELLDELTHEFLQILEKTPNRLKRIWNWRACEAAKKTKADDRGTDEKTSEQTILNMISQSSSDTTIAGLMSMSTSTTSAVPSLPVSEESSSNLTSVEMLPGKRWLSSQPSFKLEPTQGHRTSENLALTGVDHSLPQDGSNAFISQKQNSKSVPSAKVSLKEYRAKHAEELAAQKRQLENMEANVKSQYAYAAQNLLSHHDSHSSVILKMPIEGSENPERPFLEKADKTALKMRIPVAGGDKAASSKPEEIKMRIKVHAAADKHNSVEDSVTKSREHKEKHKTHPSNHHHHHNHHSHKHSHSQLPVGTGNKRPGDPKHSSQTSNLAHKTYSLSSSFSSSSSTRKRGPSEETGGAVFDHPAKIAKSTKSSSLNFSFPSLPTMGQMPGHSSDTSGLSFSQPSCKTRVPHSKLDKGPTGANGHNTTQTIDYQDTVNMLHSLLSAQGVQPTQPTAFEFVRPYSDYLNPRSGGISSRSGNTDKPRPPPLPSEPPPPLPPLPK
Method: The inhibitory activity of the compounds identified by the VS was evaluated against CDK9/cyclin T1 using the fluorescence-based ADAPTA kinase assay (Thermo Fisher Scientific, Madison, WI, USA). The assay quantifies ADP generated during the kinase reaction through a competitive immunoassay employing a TR-FRET detection system. In the presence of an inhibitor, ADP formation by the kinase is reduced, leading to preservation of the antibody–tracer complex and a corresponding increase in the TR-FRET signal. Inhibitory potency was expressed as IC50 values, determined from logistic dose–response curves with 10 concentration points, each representing the average of two independent experiments.

[1] = tested on: HeLa cells transfected with siCTR or siCDK9; experiment: Cell viability in HeLa cells with siRNA-mediated CDK9 knockdown; assay type: cell-based; details: 100 nM siCDK9 vs siCTR, 72 h treatment
Method: as §1
Consistently, when CDK9 is depleted, the overall impact of compound 1 is reduced.
Figure S2. HeLa cells were transfected with 100 nM of siCTR or siCDK9. After 24 hours of incubation, the cells were plated for the indicated treatment time points and incubated for an additional 24 hours, followed by treatment with the speciﬁed drug concentrations for another 72 hours. Results are presented as the mean ± SD from three independent experiments. *p< […], **p< 0.01, *** p < 0.001 and **** p < 0.0001.
(1 picture or pasted object on this page, not shown here)

[2] = tested on: γH2AX Ser139 foci in HeLa cells; experiment: Immunofluorescence analysis of γ-H2AX foci; assay type: cell-based; details: 1 h pretreatment with compound 1, then 2 h CPT, combination vs CPT alone
Method: (§2) HeLa cells were fixed in 4% paraformaldehyde and subsequently permeabilized with 0.2% Triton X-100. Blocking was performed with 1% bovine serum albumin (BSA) for 10 min at room temperature. Cells were then incubated for 1 h at RT with primary antibodies targeting: γH2AX Ser139 (1:200, ab2893, Abcam, Cambridge, UK) or pRPA32 S4/8 (1:200, A300-245A, Bethyl Laboratories, Montgomery, TX, USA). Corresponding secondary antibody conjugated with AlexaFluor 647 donkey anti-rabbit IgG (H + L) was applied. Samples were mounted using ProLong™ Gold Antifade Mountant with DAPI (Thermo Fisher Scientific). High-resolution immunofluorescence imaging was performed on a Zeiss LSM 900 Airyscan2 confocal microscope equipped with a Plan-Apochromat 63×/1.4 NA oil immersion objective. Image acquisition and processing utilized Zen 3.9 software Zeiss, Jena, Germany). Quantification of fluorescent foci per nucleus was conducted using Fiji (ImageJ) software, version 2.14.0/1.54f.
Figure S3. […] Thirty cells were evaluated per condition. Data are expressed as the mean ± standard deviation (SD) from three separate experiments. Statistical signiﬁcance was determined using Welch’s corrected Student’s t-test to account for potential variance diﬀerences between samples. **** p < 0.0001. […]

[3] = tested on: pRPA32 S4/8 in HeLa cells; experiment: Immunofluorescence analysis of pRPA32 S4/8 (HR activity); assay type: cell-based; details: 1 h pretreatment with compound 1 or DMSO, then 2 h CPT
Method: as §2
Figure S4. A) HeLa cells were pre-treated with compound 1 (reported as Cmp 1) or DMSO for one hour, followed by incubation with CPT. Thirty cells per condition were analyzed from three independent experiments, with results reported as the standard deviation (SD). Statistical analysis was performed using Welch’s corrected Student’s t-test to account for heteroscedasticity in the data. […]

[4] = 10 concentration points, average of two independent experiments, read-out: Experimental IC50

CC[C@@]1(O)C(=O)OCc2c1cc1n(c2=O)Cc2cc3ccccc3nc2-1 [CPT, Camptothecin, reference compound]
cell viability (antiproliferative effect) (HeLa cells): detectable cytotoxic effect | cell viability (antiproliferative effect) (MCF-7 cells): detectable cytotoxic effect | cell viability (antiproliferative effect) (MDA-MB-231 cells): detectable cytotoxic effect

COc1ccccc1-c1ccnc(NC2CC3CCC(C2)N3C)n1 (centres unmarked) [Compound 1]
IC50 (CDK9/cyclin T1; [4]): 3.51 µM | IC50 (CDK9/cyclin T1; read-out: IC50): < 50 µM | potency of compound 1 relative to compound 2 (CDK9/cyclin T1; in vitro enzymatic assays): five-fold | cell viability, combination with CPT (HeLa cells; CPT fixed 5 nM + compound 1 1.85–30 µM): additive interaction | cell viability, combination with CPT (HeLa cells; compound 1 fixed 7.5 µM + CPT 1.25–20 nM): potentiated the cytotoxic activity of CPT | cell viability (antiproliferative effect) (HeLa cells): stronger antiproliferative activity | cell viability, combination with CPT (MCF-7 cells; MCF-7, CPT fixed 5 nM + compound 1 1.85–30 µM): additive interaction | cell viability, combination with CPT (MCF-7 cells; MCF-7, compound 1 fixed 7.5 µM + CPT 1.25–20 nM): potentiated the cytotoxic activity of CPT | cell viability (antiproliferative effect) (MCF-7 cells): stronger antiproliferative activity | cell viability, combination with CPT (MDA-MB-231 cells; MDA-MB-231, CPT fixed 5 nM + compound 1 1.85–30 µM): additive interaction | cell viability, combination with CPT (MDA-MB-231 cells; MDA-MB-231, compound 1 fixed 7.5 µM + CPT 1.25–20 nM): potentiated the cytotoxic activity of CPT | cell viability (antiproliferative effect) (MDA-MB-231 cells): stronger antiproliferative activity | survival of CDK9-depleted cells vs control cells [1]: higher survival | DNA damage response (γ-H2AX foci) [2]: stronger DNA damage response | pRPA32 S4/8 signal (HR activity) [3]: no significant changes in pRPA32 signal

CCOC(=O)c1sc(NC(=S)Nc2c(C)n(C)n(-c3ccccc3)c2=O)c(C(=O)OCC)c1C [Compound 2]
IC50 (CDK9/cyclin T1; [4]): 16.8 µM | IC50 (CDK9/cyclin T1; read-out: IC50): < 50 µM | cell viability (antiproliferative effect) (HeLa cells): less effective at comparable concentrations | cell viability (antiproliferative effect) (MCF-7 cells): less effective at comparable concentrations | cell viability (antiproliferative effect) (MDA-MB-231 cells): less effective at comparable concentrations

COc1ccc(F)cc1-c1cc(N2CCN(S(=O)(=O)Cc3ccccc3)CC2)ncn1 [Compound 3]
IC50 (CDK9/cyclin T1; [4]): 28.6 µM | IC50 (CDK9/cyclin T1; read-out: IC50): < 50 µM

Cc1nn(-c2ccc(F)cc2)c2nc(CCC(C)C)nc(N3CCN(C(=O)C4CC4c4ccccc4)CC3)c12 (centres unmarked) [Compound 4]
IC50 (CDK9/cyclin T1; [4]): 67.2 µM

COc1cc2c(c3oc(=O)c(CCC(=O)NC4C=CS(=O)(=O)C4)c(C)c13)CCC(C)(C)O2 (centres unmarked) [Compound 5]
IC50 (CDK9/cyclin T1; [4]): 107 µM

O=S(=O)(N1CCCC1)N1CCN(c2ncnc3scc(-c4ccc(F)cc4)c23)CC1 [Compound 6]
IC50 (CDK9/cyclin T1; [4]): 133 µM

Cc1cc(N2CCC3(NC(=O)c4cccc(C(C)C)n4)CCCC23)nc(CO)n1 (centres unmarked) [Compound 8]
IC50 (CDK9/cyclin T1; [4]): > 133 µM

Cn1nc(C(=O)N2CCC(c3cc(O)nc(N4CCCC4)n3)C2)c2ccccc21 (centres unmarked) [Compound 9]
IC50 (CDK9/cyclin T1; [4]): > 133 µM

Cc1cc(NC2CCN(c3ncccc3F)C2)nc(C)n1 (centres unmarked) [Compound 10]
IC50 (CDK9/cyclin T1; [4]): > 133 µM

COc1ccc(OC)c(-c2cc(C(=O)NCC3CCN(c4ncccn4)CC3)n(C)n2)c1 [Compound 11]
IC50 (CDK9/cyclin T1; [4]): > 133 µM

Nc1c2c(-c3ccccc3Cl)nc(N3CCCC3)nc2nn1-c1ccc(F)cc1 [Compound 12]
IC50 (CDK9/cyclin T1; [4]): > 133 µM

CCC(Sc1nc2sc(C(=O)N(C)C)c(C)c2c(=O)n1CCc1ccccc1)C(=O)NC1CCCCC1 (centres unmarked) [Compound 13]
IC50 (CDK9/cyclin T1; [4]): > 133 µM

COC(=O)c1c(NC(=O)c2nn3c(C(F)(F)F)cc(-c4ccc(Br)cc4)nc3c2Cl)sc2c1CCCC2 [Compound 14]
IC50 (CDK9/cyclin T1; [4]): > 133 µM
